Data published in patent US10822337B2, “TGF-β inhibitorC” (Rigel Pharmaceuticals, Inc., priority 2015, dated 2020).

Key:
[1] = tested on: TGF-β signaling (TGF-β pSMAD, MPC-11); assay: AlphaScreen SureFire SMAD3 (p-Ser423/425) assay, inhibition of TGF-β signaling; format: cell-based; conditions: Mus musculus, p-SMAD-3 (Ser423/425) in cell lysate after TGF-β stimulation
From the text: (§1) Example 2: AlphaScreen® SureFire® SMAD3 (p-Ser423/425) Assay
(§2) The p-SMAD-3 (Ser423/425) SureFire® assay has been designed to measure the phosphorylation of endogenous cellular p-SMAD-3 (Ser423/425) in cell lysates and is a system for the screening of both modulators of receptor activation (e.g. agonists and antagonists) as well as agents acting intracellularly, such as small molecule inhibitors of upstream events. The assay will measure p-SMAD-3 (Ser423/425) activation by either cloned or endogenous receptors, and can be applied to primary cells.
(§3) 1× Lysis buffer: 1 ml of 5× Lysis buffer was diluted with 4 ml of sterile water. After dilution, excess 1× Lysis buffer can be frozen and thawed up to 5 times without loss in activity.
(§4) P-SMAD-3 (Ser423/425) SureFire® Assay Protocols
(§5) Step A: Preparation of Buffers
(§6) Activation buffer: The buffer was warmed slowly to 37° C. and gently mixed to re-suspend. Activation buffer can be stored at room temperature with no loss in activity.
(§7) Reaction buffer: The buffer was kept at 4° C. while in use.
(§8) AlphaScreen® Protein A IgG Kit: The kit was stored at 4° C. in the dark.
(§9) Reaction buffer+Activation buffer+AlphaScreen® Acceptor beads: Reaction buffer (40 parts), Activation Buffer (10 parts) and Acceptor beads (1 part) were mixed and the mixture was stored at room temperature and used the same day. Mixture was added to 384-well plates; excess mixturewas discarded.
(§10) Dilution buffer+AlphaScreen® Donor beads: Dilution buffer (20 parts) and Donor beads (1 part) were mixed and the mixture was stored at room temperature and used the same day. Excess mixture was discarded.
(§11) Assay control samples: After reconstitution in 250 μl of water, lysates were at −20° C. in single use aliquots.
(§12) Step B: Preparation of Samples and Cells
(§13) 96-well Assay Protocol for 293FT and RMS13 adherent cells can be carried out manually or in high throughput with liquid handling robots.
(§14) The cells (80 μL of cells for 96 well plates) were plated in collagen coated tissue culture plates in RPMI or FreeStyle medium (Invitrogen) and incubated overnight. For manual analysis, 6 plates for GDF8, 6 plates for TGFβ, and optionally 6 plates for Alk5ca(ALKS constitutively active) were used.
(§15) The compound dilution plates were prepared as follows: 12 μL of DMSO was transferred into first column of 96-well plate, and 16 μL of DMSO was transferred into columns 2-12 of the 96-well plate. 12 μL of compound solution was transferred into first column of the DMSO-containing 96-well plate. Three-fold dilution was performed up to column 10 of the DMSO-containing 96-well plate.
(§16) Step C: Treatment and Analysis
(§17) The plate containing cells were treated with compounds for about 10 minutes, and then ligand was added. GDF8 or TGFb was added to plates to stimulate. 293FL cells were stimulatedfor 90 minutes at 37° C.; and RMS13 cells were stimulated for 60 minutes at 37° C. The medium was then removed from the cells, and 1× Lysis Buffer (about 25 μL) was added and the plate was gently agitated on plate shaker for 5-10 minutes.
(§18) The lysate (5 μL) was then placed into 384-well shallow plates avoiding the generation of bubbles. To this, the Reaction Buffer+Activation Buffer+AlphaScreen® Acceptor beadsmixture (5 μL) was added. The plate was sealed with adhesive cover and shielded from light (e.g., with metal foil), and agitated gently on plate shaker for 2 hours at room temperature.
(§19) Dilution buffer+AlphaScreen® Donor beads (2 μL) was then added, and the plate was intubated on the plate shaker for an additional 1½ hours. After completion, the plate was read on Synergy-4 or Enspire plate reader, using AlphaScreen® pSMAD3® settings.
(§20) Representative results for inhibition of GDF8 (data=GDF pSMAD (MPC11) (μM)) and TGF-β (data=TGF-β pSMAD (MPC-11) (μM)) signaling are shown in Table 1: […]

[2] = tested on: GDF8 signaling (GDF pSMAD, MPC11); assay: AlphaScreen SureFire SMAD3 (p-Ser423/425) assay, inhibition of GDF8 signaling; format: cell-based; conditions: Mus musculus, MPC-11, p-SMAD-3 (Ser423/425) in cell lysate after GDF8 stimulation
From the text: as §1, §2, §3, §4, §5, §6, §7, §8, §9, §10, §11, §12, §13, §14, §15, §16, §17, §18, §19, §20

SMILES	IC50 [1]	IC50 [2]
Cn1cnc2ccc(-c3c(-c4ccc(F)cc4F)nn4c3CCC4)cc21 [Compound 93, 6-(2-(2,4-Difluorophenyl)-5,6-dihydro-4H-pyrrolo[1,2-b]pyrazol-3-yl)-1-methyl-1H-benzo[d]imidazole]	319 nM	77.2 nM
Fc1ccc(-c2nn3c(c2-c2ccc4ncccc4c2)CCC3)cc1 [Compound 45, 6-(2-(4-Fluorophenyl)-5,6-dihydro-4H-pyrrolo[1,2-b]pyrazol-3-yl)quinoline]	12600 nM	1080 nM
COc1cccc(-c2nn3c(c2-c2ccc4cn[nH]c4c2)CCC3)c1 [Compound 28, 6-(2-(3-Methoxyphenyl)-5,6-dihydro-4H-pyrrolo[1,2-b]pyrazol-3-yl)-1H-indazole]	242 nM	80.2 nM
COc1c(F)ccc(-c2nn3c(c2-c2ccc4ncsc4c2)CCC3)c1F [Compound 162, 6-(2-(2,4-Difluoro-3-methoxyphenyl)-5,6-dihydro-4H-pyrrolo[1,2-b]pyrazol-3-yl)benzo[d]thiazole]	2220 nM	555 nM
Fc1ccc(-c2nn3c(c2-c2ccc4[nH]ncc4c2)CCC3)c(F)c1 [Compound 91, 5-(2-(2,4-Difluorophenyl)-5,6-dihydro-4H-pyrrolo[1,2-b]pyrazol-3-yl)-1H-indazole]	840 nM	262 nM
Fc1ccc(-c2nn3c(c2-c2ccc4ncccc4c2)CCC3)c(F)c1 [Compound 95, 6-(2-(2,4-Difluorophenyl)-5,6-dihydro-4H-pyrrolo[1,2-b]pyrazol-3-yl)quinoline]	3740 nM	559 nM
Fc1ccc(-c2nn3c(c2-c2ccc4ncnn4c2)CCC3)c(F)c1Cl [Compound 160, 6-(2-(3-Chloro-2,4-difluorophenyl)-5,6-dihydro-4H-pyrrolo[1,2-b]pyrazol-3-yl)-[1,2,4]triazolo[1,5-a]pyridine]	738 nM	296 nM
Fc1ccc(-c2nn3c(c2-c2ccc4cn[nH]c4c2)OCC3)cc1 [Compound 65, 6-(4-Fluorophenyl)-7-(1H-indazol-6-yl)-2,3-dihydropyrazolo[5,1-b]oxazole]	881 nM	143 nM
Cc1cc(-c2nn3c(c2-c2ccc4nccn4c2)CCC3)c(F)cc1F [Compound 181, 6-(2-(2,4-Difluoro-5-methylphenyl)-5,6-dihydro-4H-pyrrolo[1,2-b]pyrazol-3-yl)imidazo[1,2-a]pyridine]	380 nM	204 nM
Fc1ccc(-c2nn3c(c2-c2ccc4nccn4c2)CCC3)cc1OC(F)(F)F [Compound 151, 6-(2-(4-Fluoro-3-trifluoromethoxyphenyl)-5,6-dihydro-4H-pyrrolo[1,2-b]pyrazol-3-yl)imidazo[1,2-a]pyridine]	1160 nM	389 nM
Fc1ccc(-c2nn3c(c2-c2ccc4cn[nH]c4c2)CCC3)c(F)c1Cl [Compound 156, 6-(2-(3-Chloro-2,4-difluorophenyl)-5,6-dihydro-4H-pyrrolo[1,2-b]pyrazol-3-yl)-1H-indazole]	2840 nM	440 nM
Fc1cc(F)c(-c2nn3c(c2-c2ccc4[nH]ncc4c2)CCC3)cc1F [Compound 112, 5-(2-(2,4,5-Trifluorophenyl)-5,6-dihydro-4H-pyrrolo[1,2-b]pyrazol-3-yl)-1H-indazole]	816 nM	137 nM
Fc1ccc(-c2nn3c(c2-c2ccc4ncnn4c2)CCC3)c(F)c1 [Compound 111, 6-(2-(2,4-Difluorophenyl)-5,6-dihydro-4H-pyrrolo[1,2-b]pyrazol-3-yl)-[1,2,4]triazolo[1,5-a]pyridine]	231 nM	61.3 nM
Cc1c(F)ccc(-c2nn3c(c2-c2ccc4[nH]ncc4c2)CCC3)c1F [Compound 167, 5-(2-(2,4-Difluoro-3-methylphenyl)-5,6-dihydro-4H-pyrrolo[1,2-b]pyrazol-3-yl)-1H-indazole]	538 nM	209 nM
Cn1cnc2ccc(-c3c(-c4ccc(F)cc4)nn4c3CCC4)cc21 [Compound 13, 6-(2-(4-Fluorophenyl)-5,6-dihydro-4H-pyrrolo[1,2-b]pyrazol-3-yl)-1-methyl-1H-benzo[d]imidazole]	182 nM	79.6 nM
COc1ccc(-c2nn3c(c2-c2ccc4ncccc4c2)CCC3)cc1 [Compound 101, 6-(2-(4-Methoxyphenyl)-5,6-dihydro-4H-pyrrolo[1,2-b]pyrazol-3-yl)quinoline]	–	2450 nM

Continued by falling IC50 [2], values first:

IC50 [1]	IC50 [2]	SMILES
6030 nM	1990 nM	FC(F)(F)c1cccc(-c2nn3c(c2-c2ccc4ncccc4c2)OCC3)c1 [Compound 63, 7-(Quinolin-6-yl)-6-(3-trifluoromethylphenyl)-2,3-dihydropyrazolo[5,1-b]oxazole]
4180 nM	685 nM	COc1ccc(-c2nn3c(c2-c2ccc4nccnc4c2)CCC3)cc1 [Compound 102, 6-(2-(4-Methoxyphenyl)-5,6-dihydro-4H-pyrrolo[1,2-b]pyrazol-3-yl)quinoxaline]
1400 nM	319 nM	Fc1ccc(-c2nn3c(c2-c2ccc4nccn4c2)CCC3)c(F)c1F [Compound 130, 6-(2-(2,3,4-Trifluoropehnyl)-5,6-dihydro-4H-pyrrolo[1,2-b]pyrazol-3-yl)imidazo[1,2-a]pyridine]
863 nM	309 nM	FC(F)(F)c1cccc(-c2nn3c(c2-c2ccc4nccnc4c2)CCC3)c1 [Compound 58, 6-(2-(3-Trifluoromethylphenyl)-5,6-dihydro-4H-pyrrolo[1,2-b]pyrazol-3-yl)quinoxaline]
927 nM	132 nM	Fc1cccc(-c2nn3c(c2-c2ccc4ncnn4c2)CCC3)c1 [Compound 109, 6-(2-(3-Fluorophenyl)-5,6-dihydro-4H-pyrrolo[1,2-b]pyrazol-3-yl)-[1,2,4]triazolo[1,5-a]pyridine]
659 nM	98.5 nM	Fc1cc(F)c(-c2nn3c(c2-c2ccc4nccnc4c2)CCC3)cc1F [Compound 118, 6-(2-(2,4,5-Trifluorophenyl)-5,6-dihydro-4H-pyrrolo[1,2-b]pyrazol-3-yl)quinoxaline]
311 nM	98.4 nM	Fc1ccc(-c2nn3c(c2-c2ccc4ncnn4c2)CCC3)cc1Cl [Compound 148, 6-(2-(3-Chloro-4-fluorophenyl)-5,6-dihydro-4H-pyrrolo[1,2-b]pyrazol-3-yl)-[1,2,4]triazolo[1,5-a]pyridine]
81.7 nM	63 nM	Fc1cc(F)c(-c2nn3c(c2-c2ccc4nccn4c2)CCC3)cc1Cl [Compound 188, 6-(2-(5-Chloro-2,4-difluorophenyl)-5,6-dihydro-4H-pyrrolo[1,2-b]pyrazol-3-yl)imidazo[1,2-a]pyridine]
112 nM	34 nM	Cc1cc(-c2nn3c(c2-c2ccc4ncnn4c2)CCC3)ccc1F [Compound 105, 6-(2-(4-Fluoro-3-methylphenyl)-5,6-dihydro-4H-pyrrolo[1,2-b]pyrazol-3-yl)-[1,2,4]triazolo[1,5-a]pyridine]
141 nM	30.9 nM	Fc1cc(F)c(-c2nn3c(c2-c2ccc4ncnn4c2)CCC3)cc1F [Compound 119, 6-(2-(2,4,5-Trifluorophenyl)-5,6-dihydro-4H-pyrrolo[1,2-b]pyrazol-3-yl)-[1,2,4]triazolo[1,5-a]pyridine]
31.1 nM	13.2 nM	Fc1ccc(Cl)cc1-c1nn2c(c1-c1ccc3ncnn3c1)CCC2 [Compound 178, 6-(2-(5-Chloro-2-fluorophenyl)-5,6-dihydro-4H-pyrrolo[1,2-b]pyrazol-3-yl)-[1,2,4]triazolo[1,5-a]pyridine]
